Assay results published in the NIST ThermoML archive (doi:10.1021/je0301794).

How the values were obtained:
[1] = xn = mol fraction of the nth substance listed; conditions: 101.3 kPa, Liquid
[2] = excess molar enthalpy (molar enthalpy of mixing); xn = mol fraction of the nth substance listed; conditions: 318.15 K, 101.3 kPa, Liquid

COC(=O)OC [dimethyl carbonate] + CCCCCCC
[1]
Conditions | mass density [kg/m3]
293.15 K, x1 = 0.05 | 694
293.15 K, x1 = 0.094 | 703.5
293.15 K, x1 = 0.2039 | 729.2
293.15 K, x1 = 0.324 | 761.2
293.15 K, x1 = 0.4062 | 785.9
293.15 K, x1 = 0.5059 | 819.4
293.15 K, x1 = 0.6099 | 859.2
293.15 K, x1 = 0.6987 | 897.8
293.15 K, x1 = 0.8086 | 952.7
293.15 K, x1 = 0.9029 | 1006.6
293.15 K, x1 = 0.9504 | 1036.6
293.15 K, x1 = 1 | 1070
298.15 K, x1 = 0.0594 | 691.6
298.15 K, x1 = 0.1204 | 704.9
298.15 K, x1 = 0.2132 | 726.7
298.15 K, x1 = 0.3135 | 753.1
298.15 K, x1 = 0.4018 | 779
298.15 K, x1 = 0.4716 | 801.6
298.15 K, x1 = 0.6051 | 851
298.15 K, x1 = 0.6946 | 889.3
298.15 K, x1 = 0.8031 | 943
298.15 K, x1 = 0.902 | 999.5
298.15 K, x1 = 0.9477 | 1028.2
298.15 K, x1 = 1 | 1063.5
303.15 K, x1 = 0.0586 | 687.2
303.15 K, x1 = 0.0873 | 693.2
303.15 K, x1 = 0.1996 | 718.7
303.15 K, x1 = 0.299 | 744.2
303.15 K, x1 = 0.4009 | 773.6
303.15 K, x1 = 0.5081 | 808.9
303.15 K, x1 = 0.6069 | 846.2
303.15 K, x1 = 0.6979 | 885.2
303.15 K, x1 = 0.8051 | 938
303.15 K, x1 = 0.9069 | 995.8
303.15 K, x1 = 0.9638 | 1031.6
303.15 K, x1 = 1 | 1056.5
313.15 K, x1 = 0.0649 | 679.3
313.15 K, x1 = 0.1157 | 690.1
313.15 K, x1 = 0.3432 | 746.6
313.15 K, x1 = 0.4378 | 775.1
313.15 K, x1 = 0.5458 | 812
313.15 K, x1 = 0.6259 | 842.9
313.15 K, x1 = 0.7191 | 883.2
313.15 K, x1 = 0.8128 | 929.3
313.15 K, x1 = 0.8798 | 966.5
313.15 K, x1 = 0.9536 | 1012
313.15 K, x1 = 0.9822 | 1031.1
313.15 K, x1 = 1 | 1043.4
318.15 K, x1 = 0.0693 | 675.1
318.15 K, x1 = 0.1044 | 682.5
318.15 K, x1 = 0.1947 | 702.6
318.15 K, x1 = 0.2734 | 722
318.15 K, x1 = 0.3512 | 743.2
318.15 K, x1 = 0.419 | 763.3
318.15 K, x1 = 0.4889 | 785.9
318.15 K, x1 = 0.5518 | 808.1
318.15 K, x1 = 0.61 | 830.3
318.15 K, x1 = 0.6632 | 852
318.15 K, x1 = 0.7142 | 874.6
318.15 K, x1 = 0.762 | 897.1
318.15 K, x1 = 0.8077 | 920.1
318.15 K, x1 = 0.8514 | 943.8
318.15 K, x1 = 0.8883 | 965
318.15 K, x1 = 0.9289 | 989.7
318.15 K, x1 = 0.964 | 1012.4
318.15 K, x1 = 1 | 1036.9

[2]
Conditions | excess molar enthalpy [kcal/mol]
x1 = 0.095 | 0.191
x1 = 0.1875 | 0.317
x1 = 0.2819 | 0.413
x1 = 0.3677 | 0.474
x1 = 0.4442 | 0.503
x1 = 0.5016 | 0.512
x1 = 0.5205 | 0.512
x1 = 0.5497 | 0.511
x1 = 0.5542 | 0.51
x1 = 0.5906 | 0.505
x1 = 0.6326 | 0.493
x1 = 0.674 | 0.474
x1 = 0.7188 | 0.443
x1 = 0.7582 | 0.405
x1 = 0.8053 | 0.357
x1 = 0.8488 | 0.299
x1 = 0.892 | 0.23
x1 = 0.929 | 0.157
x1 = 0.9663 | 0.0784
x1 = 1 | 0
